Target: human TNIK (N-terminal segment, TNIK_N, residues 1-314) (Homo sapiens (Human), UniProt Q9UKE5)
Assay: TNIK kinase assay (mobility shift)
Format: biochemical
Conditions: TNIK_N kinase activity, 25 μM ATP, 1 h at room temperature
From the text: Preparation of Recombinant Human TNIK (N-Terminal Segment):
A cDNA encoding the N-terminal segment (TNIK_N, residues 1-314) containing the kinase domain of human TNIK (NM_015028.1) was amplified from cDNA mixture synthesized from human tissue (Biochain) by PCR using the following primers.
The cDNA was subcloned into baculovirus transfer vector pFastBac_GSTb that includes protease cleavage site and glutathione S-transferase purification tag (GST-tag). The plasmid was purified and the insertion of the pFastBac_GSTb-TNIK_N was confirmed by DNA sequencing. Then E. coli DH10Bac competent cells were transformed with the plasmid to prepare the recombinant bacmid according to the instructions for the Bac-to-Bac™ baculovirus expression systems (Invitrogen). The Sf9 cells were transfected with the recombinant bacmid containing pFastBac_GSTb-TNIK_N using Cellfectin Reagent (Invitrogen) in SF-9001I serum free media (Invitrogen). The viral supernatant was collected from the medium 72 h after transfection. The virus was amplified three times by infecting actively growing Sf9 or Sf21 cells in Grace's insect media (Invitrogen) supplemented with 10% FCS and an antibiotic-antimycotic reagent (Invitrogen) for 72 h at 27° C. in T-flask or roller bottles. The titer of amplified TNIK_N virus was estimated at 2.36×10^8 pfu/ml by using BacPAK™ Baculovirus Rapid Titer kit (Clontech).
Log-phase Sf21 cells (2×10^6 cells/ml) in the Grace's insect media were infected with the recombinant baculovirus at MOI of 3.0 and incubated in roller bottles (250 ml media per bottle) for 72 h at 27° C., after which, the cells were collected by centrifugation, and the cell pellet washed with cold PBS and kept at −80° C. until purification. The following purification procedures were carried out at 4° C. The frozen cells were thawed on ice and lysed in lysis buffer (50 mM Tris-HCl, pH 7.5, 150 mM NaCl, 1% Nonidet P-40, 5 mM DTT, 0.5 mM EDTA, 0.5 mM EGTA) supplemented with 1 mM phenylmethansulfonylfluoride, 2 μg/ml leupeptin, 2 μg/ml aprotinin, 1 mM NaF, 100 μM sodium orthovanadate, and 1 μM cantharidin by sonication. The suspended lysate was cleared by centrifugation at 9000g for 20 min and the supernatant was incubated for 1 h with glutathione Sepharose beads (GE Healthcare). The beads were suspended in buffer-H (50 mM Tris-HCl, pH 7.5, 1 M NaCl, 1 mM DTT, 0.5 mM EDTA, 0.5 mM EGTA and 0.05% Brij35) and washed with buffer-H followed by buffer-L (50 mM Tris-HCl, pH 7.5, 150 mM NaCl, 1 mM DTT, 0.5 mM EDTA, 0.5 mM EGTA, 0.05% Brij35) in an Econo-pack column (BIO-RAD). The bound TNIK_N was eluted with elution buffer (50 mM Tris-HCl, pH 8.0, 150 mM NaCl, 1 mM DTT, 10% glycerol, 0.5 mM EDTA, 0.5 mM EGTA and 5 mM reduced glutathione). The eluted fractions were collected and determined the protein concentration by Bradford reagent (BIO-RAD). The TNIKN fractions were pooled and desalted using 10DG column (BIORAD) equilibrated with the storage buffer (50 mM Tris-HCl, pH 7.5, 150 mM NaCl, 1 mM DTT, 10% glycerol, 0.05% Brij35). The purified TNIKN was characterized by electrophoresis using 4-20% polyacrylamide gels and matrix-assisted laser desorption/ionization reflection time-of-flight (MALDI-TOF) mass spectrometry on a Voyager-DE RP MALDI/TOF (Applied Biosystems). TNIK_N was confirmed by the molecular weight and. MASCOT Peptide Mass Fingerprint.
The kinase assays were conducted in a 20 μl volume using 384-well plates (Greiner). The reaction mixture consists of compound or vehicle (1% DMSO), 0.08 ng/μl TNIK_N, 1 μM FITC-labeled substrate peptides, including E-aminocaproic acid and 7 amino acids (described as SEQ ID NO.3 in “Kinase assay of TEST EXAMPLE 1” of WO 2010/064111(P.31)), 20 mM Hepes, pH 7.5, 0.01% Triton X-100, 5 mM MgCl2, 25 μM ATP and 2 mM DTT. As blank, TNIK N was excluded from the reaction mixture of vehicle (1% DMSO). […]

Chain of human TNIK (N-terminal segment, TNIK_N, residues 1-314) (Q9UKE5 1-314): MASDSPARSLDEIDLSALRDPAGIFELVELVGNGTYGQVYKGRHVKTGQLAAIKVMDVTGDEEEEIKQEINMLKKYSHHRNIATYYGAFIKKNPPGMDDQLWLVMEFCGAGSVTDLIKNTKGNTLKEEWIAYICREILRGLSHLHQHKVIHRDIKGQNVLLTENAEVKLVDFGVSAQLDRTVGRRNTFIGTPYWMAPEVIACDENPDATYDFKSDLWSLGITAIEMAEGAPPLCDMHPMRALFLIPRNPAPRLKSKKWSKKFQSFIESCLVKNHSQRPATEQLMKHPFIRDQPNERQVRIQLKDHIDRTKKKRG

| Structure (SMILES) | IC50 [nM] |
| --- | --- |
| COc1ccc2cc(Nc3nc(C(N)=O)c(NC(=O)c4ccc(NCCO)cc4)s3)ccc2c1 [Example 113, 5-{4-[(2-hydroxyethyl)amino]benzamido}-2-[(6-methoxynaphthalen-2-yl)amino]thiazole-4-carbox-amide] | 14.8 |
| Cc1ccc(C(=O)Nc2sc(Nc3ccc4ccccc4c3)nc2C(N)=O)cc1N [Example 9, 5-(3-amino-4-methylbenzamido)-2-(naphthalen-2-ylamino)thiazole-4-carboxamide] | 27.2 |
| NC(=O)c1nc(Nc2ccc3ccccc3c2)sc1NC(=O)c1ccc(Cn2cccn2)cc1 [Example 232, 5-{4-[(1H-pyrazol-1-yl)methyl]benzamido}-2-(naphthalen-2-ylamino)thiazole-4-carboxamide] | 10.3 |
| C[C@@H](O)CNc1ccc(C(=O)Nc2sc(Nc3ccc4ccccc4c3)nc2C(N)=O)cc1 [Example 147, (R)-5-{4-[(2-hydroxypropyl)amino]benzamido}-2-(naphthalen-2-ylamino)thiazole-4-carboxamide] | 16.8 |
| Cc1ccc(C(=O)Nc2sc(Nc3ccc4cc(CO)ccc4c3)nc2C(N)=O)s1 [Example 151, 2-{[6-(hydroxymethyl)naphthalen-2-yl]amino}-5-(5-methylthiophene-2-carboxamido)thiazole-4-carboxamide] | 11.1 |
| NC(=O)c1nc(Nc2ccc3ccc(F)cc3c2)sc1NC(=O)c1ccc(NCCO)cc1 [Example 124, 2-[(7-fluoronaphthalen-2-yl)amino]-5-{4-[(2-hydroxyethyl)amino]benzamido}thiazole-4-carbox-amide] | 12.9 |
| CC(=O)Nc1ccc(C(=O)Nc2sc(Nc3cccc4ccccc34)nc2C(N)=O)cc1 [Example 1, 5-(4-acetamidobenzamido)-2-(naphthalen-1-ylamino)thiazole-4-carboxamide] | 24.7 |
| CC(C)=CC(=O)Nc1sc(Nc2ccc3ccc(F)cc3c2)nc1C(N)=O [Example 128, 2-[(7-fluoronaphthalen-2-yl)amino]-5-(3-methyl-but-2-enamido)thiazole-4-carboxamide] | 7.2 |
| NC(=O)c1nc(Nc2ccc3ccccc3c2)sc1NC(=O)c1ccc(Cn2ccnc2)s1 [Example 251, 5-{5-[(1H-imidazol-1-yl)methyl]thiophene-2-carboxamido}-2-(naphthalen-2-ylamino)thiazole-4-carboxamide] | 7.7 |
| NC(=O)c1nc(Nc2ccc3ccccc3c2)sc1NC(=O)c1ccc(CN2C(=O)CSC2=O)cc1 [Example 252, 5-{4-[(2,4-dioxothiazolidin-3-yl)methyl]benzamido}-2-(naphthalen-2-ylamino)thiazole-4-carbox-amide] | 15.9 |
| NC(=O)c1nc(Nc2ccc3ccc(F)cc3c2)sc1NC(=O)C1CC1 [Example 122, 5-(cyclopropanecarboxamido)-2-[(7-fluoro-naphthalen-2-yl)amino]thiazole-4-carboxamide] | 12.8 |
| NC(=O)c1nc(Nc2ccc3ccccc3c2)sc1NC(=O)C1CC1 [Example 93, 5-(cyclopropanecarboxamido)-2-(naphthalen-2-yl-amino)thiazole-4-carboxamide] | 15 |
| CN(CCO)c1ccc(C(=O)Nc2sc(Nc3ccc4ccccc4c3)nc2C(N)=O)cc1 [Example 29, 5-{4-[(2-hydroxyethyl)methylamino]benzamido}-2-(naphthalen-2-ylamino)thiazole-4-carboxamide] | 27.4 |

Continued, values first:

| IC50 [nM] | Structure (SMILES) |
| --- | --- |
| 4.2 | NC(=O)c1nc(Nc2ccc3ccccc3c2)sc1NC(=O)c1ccc(CN2CCNC(=O)C2)cc1 [Example 180, 2-(naphthalen-2-ylamino)-5-{4-[(3-oxopiperazin-1-yl)methyl]benzamido}thiazole-4-carboxamide] |
| 2.3 | Cc1nccn1Cc1ccc(C(=O)Nc2sc(Nc3ccc4ccccc4c3)nc2C(N)=O)cc1 [Example 237, 5-{4-[(2-methyl-1H-imidazol-1-yl)methyl]benz-amido}-2-(naphthalen-2-ylamino)thiazole-4-carbox-amide] |
| 3.5 | NC(=O)c1nc(Nc2ccc3ccccc3c2)sc1NC(=O)c1ccc(Cn2cnc(CO)c2)cc1 [Example 246, 5-{4-[(4-(hydroxymethyl)-1H-imidazol-1-yl)methyl]benzamido}-2-(naphthalen-2-ylamino)thiazole-4-carboxamide] |
| 6.2 | Cc1nnc(Cc2ccc(C(=O)Nc3sc(Nc4ccc5ccccc5c4)nc3C(N)=O)cc2)o1 [Example 257, 5-{4-[(5-methyl-1,3,4-oxadiazol-2-yl)methyl]benzamido}-2-(naphthalen-2-ylamino)thiazole-4-carboxamide] |
| 4 | NC(=O)c1nc(Nc2ccc3ccccc3c2)sc1NC(=O)C#CCCO [Example 225, 5-(5-hydroxypent-2-ynamido)-2-(naphthalen-2-ylamino)thiazole-4-carboxamide] |
| 5.9 | NC(=O)c1nc(Nc2ccc3ccccc3c2)sc1NC(=O)c1ccc(Cn2cnc([N+](=O)[O-])c2)cc1 [Example 239, 2-(naphthalen-2-ylamino)-5-{4-[(4-nitro-1H-imidazol-1-yl)methyl]benzamido}thiazole-4-carbox-amide] |
| 2.9 | NC(=O)c1nc(Nc2ccc3ccccc3c2)sc1NC(=O)c1ccc(Cc2nn[nH]n2)cc1 [Example 231, 5-{4-[(2H-tetrazol-5-yl)methyl]benzamido}-2-(naphthalen-2-ylamino)thiazole-4-carboxamide] |
| 5.5 | NC(=O)c1nc(Nc2ccc3cc(CO)ccc3c2)sc1NC(=O)c1ccsc1 [Example 70, 2-{[6-(hydroxymethyl)naphthalen-2-yl]amino}-5-(thiophene-3-carboxamido)thiazole-4-carbox-amide] |
| 3.2 | CN1CCCN(Cc2ccc(C(=O)Nc3sc(Nc4ccc5ccccc5c4)nc3C(N)=O)cc2)CC1 [Example 190, 5-{4-[(4-methyl-1,4-diazepan-1-yl)methyl]benz-amido}-2-(naphthalen-2-ylamino)thiazole-4-carbox-amide] |
| 6 | C#CC(=O)Nc1sc(Nc2ccc3ccccc3c2)nc1C(N)=O [Example 204, 2-(naphthalen-2-ylamino)-5-propiolamidothiazole-4-carboxamide] |
| 7.1 | Cc1nnnn1Cc1ccc(C(=O)Nc2sc(Nc3ccc4ccccc4c3)nc2C(N)=O)cc1 [Example 244, 5-{4-[(5-methyl-1H-tetrazol-1-yl)methyl]benz-amido}-2-(naphthalen-2-ylamino)thiazole-4-carbox-amide] |
| 3 | NC(=O)c1nc(Nc2ccc3ncccc3c2)sc1NC(=O)c1ccc(Cn2ccnc2)cc1 [Example 250, 5-{4-[(1H-imidazol-1-yl)methyl]benzamido}-2-(quinolin-6-ylamino)thiazole-4-carboxamide] |
| 5.5 | NC(=O)c1nc(Nc2cccc3cccnc23)sc1NC(=O)c1ccc(Cn2ccnc2)cc1 [Example 259, 5-{4-[(1H-imidazol-1-yl)methyl]benzamido}-2-(quinolin-8-ylamino)thiazole-4-carboxamide] |
| 1.6 | CC(C)=CC(=O)Nc1sc(Nc2ccc3cc(CO)ccc3c2)nc1C(N)=O [Example 139, 2-{[6-(hydroxymethyl)naphthalen-2-yl]amino}-5-(3-methylbut-2-enamido)thiazole-4-carboxamide] |

Source: patent US9102637B2, “Bicyclic thiazole compounds” (CARNA BIOSCIENCES INC., priority 2013, dated 2015)
